Here are results for nine compounds from ChEMBL document CHEMBL4342445, “Structurally Diverse Meroterpenoids from a Marine-Derived Aspergillus sp. Fungus” (J Nat Prod, 2020).

The structures appear in SMILES notation. Calls of active or inactive are those of the source. The rule behind the calls is not given here.

This test deals with Acetylcholinesterase (Homo sapiens) (UniProt P22303). In words: Inhibition of human erythrocytes AChE at 50 uM using acetylthiocholine iodide as substrate preincubated for 20 mins followed by substrate addition and measured every 30 secs for 1 hr by spectrophotometry based Ellman's method. Background: Ellman's reagent forms a yellow product with free thiols.
Chain of Acetylcholinesterase (Homo sapiens) (P22303 whole entry): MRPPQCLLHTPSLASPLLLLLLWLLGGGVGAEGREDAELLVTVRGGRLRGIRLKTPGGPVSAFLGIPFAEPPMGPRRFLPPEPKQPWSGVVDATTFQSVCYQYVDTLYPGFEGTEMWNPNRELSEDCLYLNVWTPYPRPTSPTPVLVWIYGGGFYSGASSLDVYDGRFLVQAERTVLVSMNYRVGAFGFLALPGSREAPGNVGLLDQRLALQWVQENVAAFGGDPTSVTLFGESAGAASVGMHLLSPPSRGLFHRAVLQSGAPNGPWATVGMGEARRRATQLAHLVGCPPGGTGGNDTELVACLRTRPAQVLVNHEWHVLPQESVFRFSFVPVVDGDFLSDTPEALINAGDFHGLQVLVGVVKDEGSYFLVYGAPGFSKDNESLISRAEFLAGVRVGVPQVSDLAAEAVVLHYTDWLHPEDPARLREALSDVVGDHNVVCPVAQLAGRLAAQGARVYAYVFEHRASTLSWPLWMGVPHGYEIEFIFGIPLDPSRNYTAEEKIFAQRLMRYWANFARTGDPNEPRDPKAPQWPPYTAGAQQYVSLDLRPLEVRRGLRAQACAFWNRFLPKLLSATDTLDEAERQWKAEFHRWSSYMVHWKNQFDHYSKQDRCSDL

In the case of `C=C1[C@@]23C(=O)O[C@H](C)[C@]24O[C@@]2(C(=C)[C@]5(C=CC(=O)OC5(C)C)CC[C@]32C)[C@H](OC(C)=O)[C@@]1(C)OC4=O`, the inhibition result was “inactive”.
With `C=C1[C@@]2(C)CC3=C(C)[C@]4(C=CC(=O)OC4(C)C)CC[C@]3(C)[C@@]13C(=O)O[C@@H](C)[C@@]3(O)C2=O`, the inhibition entry is “inactive”.
For the compound `C=C1[C@]2(C)C(=O)[C@]3(O)[C@H](C)OC(=O)[C@]13[C@@]1(C)CC[C@@]3(C=CC(=O)OC3(C)C)C(C)=C1[C@@H]2OC(C)=O`, the inhibition result is “inactive”.
For `C=C1[C@@]2(C)C[C@H]3[C@]4(C)C=CC(=O)OC(C)(C)[C@H]4CC[C@]3(C)[C@]1(C(=O)OC)C(=O)[C@@](C)(O)C2=O`, the inhibition result is “inactive”.
As to `C=C1[C@@]2(C(=O)OC)C(=O)[C@H](O)[C@]1(C)CC1=C(C)[C@]3(C=CC(=O)OC3(C)C)CC[C@@]12C`, the inhibition entry is “inactive”.
For `C=C1[C@@]2(C)CC3=C(C)[C@]4(C=CC(=O)OC4(C)C)CC[C@]3(C)[C@@]13C(=O)O[C@H](C)[C@@]3(O)C2=O` the value was “inactive”.
On to `C=C1[C@@]2(C)C[C@]3(C)[C@](C)(CC[C@@H]4C(C)(C)OC(=O)C=C[C@]43C)[C@@]13C(=O)O[C@H](C)[C@@]3(O)C2=O`, for which the inhibition result is “inactive”.
For `C=C1[C@@]23C(=O)O[C@H](C)[C@]24O[C@@]2(C(=C)[C@]5(CCC(=O)OC5(C)C)C[C@@H](OC(=O)/C(C)=C/C)[C@]32C)[C@H](OC(C)=O)[C@@]1(C)OC4=O` the value was “inactive”; for `C=C1[C@@]23C(=O)O[C@H](C)[C@@]2(O)C(=O)O[C@]1(C)[C@@H](OC(C)=O)C1=C(C)[C@]2(C=CC(=O)OC2(C)C)CC[C@@]13C`, “inactive”.
